In ChEMBL document CHEMBL5705888, “Substrate specificity and inhibitors of LRRK2, a protein kinase mutated in Parkinson's disease” (Biochem J, 2009):

What was measured:
[1] = molecular target: T1, Dual specificity tyrosine-phosphorylation-regulated kinase 2 (Homo sapiens) (UniProt Q92630); assay: Inhibition of DYRK2 (unknown origin) at 10 uM incubated for 30 mins in presence of [gamma-33P]ATP by multidrop micro reagent based assay relative to control; values are per cent of control
T1 sequence (whole entry): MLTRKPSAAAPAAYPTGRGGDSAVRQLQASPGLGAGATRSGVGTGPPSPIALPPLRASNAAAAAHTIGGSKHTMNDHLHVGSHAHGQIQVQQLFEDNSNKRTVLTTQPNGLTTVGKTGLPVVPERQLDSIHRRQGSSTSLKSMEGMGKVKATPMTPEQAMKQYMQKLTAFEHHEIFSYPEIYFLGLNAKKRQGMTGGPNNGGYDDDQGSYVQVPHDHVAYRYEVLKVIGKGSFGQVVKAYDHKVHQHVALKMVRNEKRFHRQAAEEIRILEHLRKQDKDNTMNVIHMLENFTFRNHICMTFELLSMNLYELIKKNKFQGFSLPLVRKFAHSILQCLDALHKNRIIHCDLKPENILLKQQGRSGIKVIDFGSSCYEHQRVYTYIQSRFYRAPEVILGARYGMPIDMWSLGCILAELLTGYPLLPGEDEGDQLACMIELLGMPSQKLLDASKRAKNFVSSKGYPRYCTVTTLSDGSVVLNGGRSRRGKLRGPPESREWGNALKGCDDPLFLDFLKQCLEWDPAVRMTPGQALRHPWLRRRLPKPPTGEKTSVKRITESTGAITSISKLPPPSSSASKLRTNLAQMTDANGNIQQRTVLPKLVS

[2] = organism: Homo sapiens; assay: Residual activity of VEGFR (unknown origin) at 10 uM incubated for 30 mins in presence of [gamma-33P]ATP by multidrop micro reagent based assay relative to control
[3] = molecular target: T2, Interleukin-1 receptor-associated kinase 4 (Homo sapiens) (UniProt Q9NWZ3); assay: Inhibition of IRAK4 (unknown origin) at 10 uM incubated for 30 mins in presence of [gamma-33P]ATP by multidrop micro reagent based assay relative to control; values are per cent of control
T2 sequence (whole entry): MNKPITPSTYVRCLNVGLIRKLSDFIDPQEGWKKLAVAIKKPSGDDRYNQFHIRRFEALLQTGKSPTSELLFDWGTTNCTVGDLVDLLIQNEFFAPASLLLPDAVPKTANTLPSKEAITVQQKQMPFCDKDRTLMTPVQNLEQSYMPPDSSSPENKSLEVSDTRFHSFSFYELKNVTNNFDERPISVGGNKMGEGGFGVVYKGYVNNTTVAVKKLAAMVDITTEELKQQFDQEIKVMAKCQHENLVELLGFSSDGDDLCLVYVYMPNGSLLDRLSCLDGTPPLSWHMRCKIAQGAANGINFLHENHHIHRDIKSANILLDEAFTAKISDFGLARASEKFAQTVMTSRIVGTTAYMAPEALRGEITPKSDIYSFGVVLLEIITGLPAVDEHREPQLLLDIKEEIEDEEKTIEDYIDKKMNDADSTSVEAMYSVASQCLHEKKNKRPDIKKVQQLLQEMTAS

[4] = molecular target: T3, NUAK family SNF1-like kinase 1 (Homo sapiens) (UniProt O60285); assay: Activity of NUAK1 (unknown origin) at 1 uM incubated for 30 mins in presence of [gamma-33P]ATP by multidrop micro reagent based assay relative to control
T3 sequence (whole entry): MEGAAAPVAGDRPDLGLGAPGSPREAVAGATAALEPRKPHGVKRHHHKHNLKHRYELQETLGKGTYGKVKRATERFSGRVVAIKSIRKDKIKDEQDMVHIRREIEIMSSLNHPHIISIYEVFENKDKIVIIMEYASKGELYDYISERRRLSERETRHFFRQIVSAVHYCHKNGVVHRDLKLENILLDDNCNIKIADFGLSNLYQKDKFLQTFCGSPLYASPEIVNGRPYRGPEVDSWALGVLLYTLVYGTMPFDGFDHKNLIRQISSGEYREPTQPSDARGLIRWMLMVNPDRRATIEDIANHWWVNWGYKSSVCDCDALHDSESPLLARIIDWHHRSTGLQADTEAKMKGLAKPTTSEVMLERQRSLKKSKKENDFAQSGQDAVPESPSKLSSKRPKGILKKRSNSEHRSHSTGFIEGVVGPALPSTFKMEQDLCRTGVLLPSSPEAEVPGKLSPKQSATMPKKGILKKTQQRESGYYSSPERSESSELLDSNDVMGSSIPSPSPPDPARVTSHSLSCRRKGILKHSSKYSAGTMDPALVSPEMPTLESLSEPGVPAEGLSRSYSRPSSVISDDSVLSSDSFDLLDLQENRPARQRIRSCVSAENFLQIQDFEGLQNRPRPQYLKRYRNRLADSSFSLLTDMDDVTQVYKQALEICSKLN

[5] = organism: Homo sapiens; assay: Inhibition of CDK2/cyclin A (unknown origin) at 1 uM incubated for 30 mins in presence of [gamma-33P]ATP by multidrop micro reagent based assay relative to control; values are per cent of control

Row | Compound | residual activity [1] [%] | residual activity [2] [%] | residual activity [3] [%] | residual activity [4] [%] | residual activity [5] [%]
1 | C[C@@H](N)[C@H]1CC[C@H](C(=O)Nc2ccncc2)CC1 | 92 | 105 | 101 |  | 
2 | O=S(=O)(c1cccc2cnccc12)N1CCCNCC1 [FASUDIL] | 80 | 70 | 69 |  | 
3 | CCn1c(-c2nonc2N)nc2cnc(Oc3cccc(NC(=O)c4ccc(OCCN5CCOCC5)cc4)c3)cc21 [GSK-269962A] |  |  |  | 39 | 50
4 | CC1=C(C(=O)Nc2cc3cn[nH]c3cc2F)C(c2ccc(C(F)(F)F)cc2)CC(=O)N1 (stereo not given) |  |  |  |  | 49
5 | CCN(CC)CCNC(=O)c1c(C)[nH]c(/C=C2\C(=O)Nc3ccc(F)cc32)c1C |  |  |  | 15 | 
